Results as given in patent US9458145B2, “Benzimidazole derivatives as bromodomain inhibitors” (Gilead Sciences, Inc., priority 2013, dated 2016).
Like-named read-outs stand apart in the source and are kept apart here.

Tested on: MT-4 cells
Experiment: MT-4 proliferation assay
Assay type: cell-based, human
Protocol: MT-4 Proliferation Assay:
Compounds were tested in a standardized high-throughput 384-well assay format. Each compound was serially diluted 3-fold in 100% DMSO in polypropylene 384-well plates using a Biomek FX Workstation, and 0.4 μL compound added to an assay plate containing 40 μL RPMI media. Compounds were arranged in a horizontal pattern, with 10 concentrations per compound, and 8 compounds added per plate. Due to low DMSO tolerability, the final DMSO concentration never exceeded 0.5% (v/v). Each assay plate contained 10 μM Puromycin and 0.5% DMSO in RPMI-1640 as positive and negative controls respectively. MT-4 cells (HTLV-1 transformed, human T lymphoblastoid cells, NIH Aids Reagent program) were added in volumes of 35 μL per well and 2,000 cells per well using a Biotek uFlow Workstation (Biotek, Winooski, Vt.), and the plates subsequently incubated for 5 days at 37° C. in an incubator set at 5% CO2 and 90% humidity.
After 5 days, 22 μL Cell Titer Glo (Promega) was added to the assay plates with a Biotek uFlow Workstation. Plates were subsequently placed on a Perkin Elmer Envision Plate Reader for 5 minutes before the luminescence signal was read.

[1] = Homo sapiens, MT4, 120 h, Table 1, 5 days, Cell Titer Glo, method text calls it EC50, read-out: MT4 Assay, (IC50)

Cc1noc(C)c1-c1cc(S(=O)(=O)NC2CCCC2)c2nc(NCC3CC3)[nH]c2c1 [Compound 1020-1, N-Cyclopentyl-2-(cyclopropylmethylamino)-6-(3,5-dimethylisoxazol-4-yl)-1H-benzo[d]imidazole-4-sulfonamide]
IC50 [1]: 193 nM

CSc1nc2c(S(=O)(=O)NC3CCCC3)cc(-c3c(C)noc3C)cc2[nH]1 [Compound 1020-4, N-Cyclopentyl-6-(3,5-dimethylisoxazol-4-yl)-2-(methylthio)-1H-benzo[d]imidazole-4-sulfonamide]
IC50 [1]: 192 nM

Cc1noc(C)c1-c1cc(S(=O)(=O)NC2CCCC2)c2nc([S+](C)[O-])[nH]c2c1 (stereo not shown) [Compound 1020-5, N-Cyclopentyl-6-(3,5-dimethylisoxazol-4-yl)-2-(methylsulfinyl)-1H-benzo[d]imidazole-4-sulfonamide]
IC50 (Homo sapiens, MT4, 120 h, read-out: MT4 Assay, (IC50, nM)): 329 nM

Cc1cnn(C)c1-c1cc(-c2c(C)noc2C)cc2nc(C3CC3)[nH]c12 [Compound 1020-12, 4-(2-Cyclopropyl-7-(1,4-dimethyl-1H-pyrazol-5-yl)-1H-benzo[d]imidazol-5-yl)-3,5-dimethylisoxazole]
IC50 [1]: 21.3 nM

Cc1noc(C)c1-c1cc(-c2cccnc2-c2ccccc2)c2nc(C3CC3)[nH]c2c1 [Compound 1020-19, 4-(2-Cyclopropyl-4-(2-phenylpyridin-3-yl)-1H-benzo[d]imidazol-6-yl)-3,5-dimethylisoxazole]
IC50 [1]: 24.4 nM

CC/C=C(\CC)c1cc(-c2c(C)noc2C)cc2nc(C3CC3)[nH]c12 [Compound 1020-28, (E)-4-(2-Cyclopropyl-4-(hex-3-en-3-yl)-1H-benzo[d]imidazol-6-yl)-3,5-dimethylisoxazole]
IC50 [1]: 51.6 nM

Cc1noc(C)c1-c1cc(/C=C/c2ccccc2)c2[nH]c(C3CC3)nc2c1 [Compound 1020-37, (E)-4-(2-cyclopropyl-4-styryl-1H-benzo[d]imidazol-6-yl)-3,5-dimethylisoxazole]
IC50 [1]: 518 nM

Cc1noc(C)c1-c1cc(C(C)c2ccc(F)cc2)c2[nH]c(C3CC3)nc2c1 (stereo not shown) [Compound 1020-44, 4-(2-Cyclopropyl-4-(1-(4-fluorophenyl)ethyl)-1H-benzo[d]imidazol-6-yl)-3,5-dimethylisoxazole]
IC50 [1]: 86.1 nM

Cc1noc(C)c1-c1cc(NC2CCCC2)c2nc(C3CC3)[nH]c2c1 [Compound 1020-50, N-Cyclopentyl-2-cyclopropyl-6-(3,5-dimethylisoxazol-4-yl)-1H-benzo[d]imidazol-4-amine]
IC50 [1]: 353 nM

Cc1ccnc(C)c1-c1cc(-c2c(C)noc2C)cc2nc(C3CC3)[nH]c12 [Compound 1020-57, 4-(2-Cyclopropyl-7-(2,4-dimethylpyridin-3-yl)-1H-benzo[d]imidazol-5-yl)-3,5-dimethylisoxazole]
IC50 [1]: 13.6 nM

Cc1n[nH]c(C)c1-c1cc(-c2c(C)noc2C)cc2nc(C3CC3)n(C)c12 [Compound 1020-72, 4-(2-cyclopropyl-7-(3,5-dimethyl-1H-pyrazol-4-yl)-1-methyl-1H-benzo[d]imidazol-5-yl)-3,5-dimethylisoxazole]
IC50 [1]: 6.5 nM

Cc1ccc2ncccc2c1-c1cc(-c2c(C)noc2C)cc2nc(C3CC3)n(C)c12 [Compound 1020-74, 4-(2-Cyclopropyl-1-methyl-7-(6-methylquinolin-5-yl)-1H-benzo[d]imidazol-5-yl)-3,5-dimethylisoxazole]
IC50 [1]: 15.3 nM

Cc1n[nH]c(C)c1-c1cc(-c2c(C)noc2C)cc2[nH]c(C3CCC3)nc12 [Compound 1020-75, 4-(2-Cyclobutyl-4-(3,5-dimethyl-1H-pyrazol-4-yl)-1H-benzo[d]imidazol-6-yl)-3,5-dimethylisoxazole]
IC50 (Table 1, 5 days, Cell Titer Glo, method text calls it EC50, read-out: MT4 Assay, (IC50)): 18.4 nM

Cc1nc2cc(-c3c(C)noc3C)cc(-c3c(C)n[nH]c3C)c2[nH]1 [Compound 1020-77, 4-(7-(3,5-Dimethyl-1H-pyrazol-4-yl)-2-methyl-1H-benzo[d]imidazol-5-yl)-3,5-dimethylisoxazole]
IC50 [1]: 39.4 nM

Cc1n[nH]c(C)c1-c1cc(-c2c(C)noc2C)cc2nc(C3CC3(F)F)[nH]c12 (stereo not shown) [Compound 1020-78, 4-(2-(2,2-Difluorocyclopropyl)-7-(3,5-dimethyl-1H-pyrazol-4-yl)-1H-benzo[d]imidazol-5-yl)-3,5-dimethylisoxazole]
IC50 [1]: 25.7 nM

Cc1n[nH]c(C)c1-c1cc(-c2c(C)noc2C)cc2[nH]c(NCC3CC3)nc12 [Compound 1020-79, N-(Cyclopropylmethyl)-4-(3,5-dimethyl-1H-pyrazol-4-yl)-6-(3,5-dimethylisoxazol-4-yl)-1H-benzo[d]imidazol-2-amine]
IC50 [1]: 33.8 nM

Cc1n[nH]c(C)c1-c1cc(-c2c(C)noc2C)cc2[nH]c(NC3CC3)nc12 [Compound 1020-81, N-Cyclopropyl-4-(3,5-dimethyl-1H-pyrazol-4-yl)-6-(3,5-dimethylisoxazol-4-yl)-1H-benzo[d]imidazol-2-amine]
IC50 [1]: 7.6 nM

Cc1ccnc(C)c1-c1cc(-c2c(C)noc2C)cc2[nH]cnc12 [Compound 1020-84, 4-(4-(2,4-Dimethylpyridin-3-yl)-1H-benzo[d]imidazol-6-yl)-3,5-dimethylisoxazole]
IC50 [1]: 236 nM

Cc1ccc2ncccc2c1-c1cc(-c2c(C)noc2C)cc2[nH]c(-c3cnn(C)c3)nc12 [Compound 1020-88, 3,5-Dimethyl-4-(2-(1-methyl-1H-pyrazol-4-yl)-4-(6-methylquinolin-5-yl)-1H-benzo[d]imidazol-6-yl)isoxazole]
IC50 [1]: 45.2 nM

Cc1ccc2ncccc2c1-c1cc(-c2c(C)noc2C)cc2[nH]c(C(O)CCO)nc12 (stereo not shown) [Compound 1020-89, 1-(6-(3,5-dimethylisoxazol-4-yl)-4-(6-methylquinolin-5-yl)-1H-benzo[d]imidazol-2-yl)propane-1,3-diol]
IC50 [1]: 104 nM

COc1nc2c(-c3c(C)ccc4ncccc34)cc(-c3c(C)noc3C)cc2[nH]1 [Compound 1020-90, 4-(2-methoxy-4-(6-methylquinolin-5-yl)-1H-benzo[d]imidazol-6-yl)-3,5-dimethylisoxazole]
IC50 [1]: 25 nM

Cc1ccc2ncccc2c1-c1cc(-c2c(C)noc2C)cc2[nH]c(C(F)(F)F)nc12 [Compound 1020-92, 3,5-Dimethyl-4-(4-(6-methylquinolin-5-yl)-2-(trifluoromethyl)-1H-benzo[d]imidazol-6-yl)isoxazole]
IC50 [1]: 73.1 nM

Cc1n[nH]c(C)c1-c1cc(-c2c(C)noc2C)cc2nc(N)[nH]c12 [Compound 1020-96, 4-(3,5-Dimethyl-1H-pyrazol-4-yl)-6-(3,5-dimethylisoxazol-4-yl)-1H-benzo[d]imidazol-2-amine]
IC50 [1]: 318 nM

Cc1noc(C)c1-c1cc(C(O)(c2ccccc2)c2ccccc2)c2nc(C3CC3)[nH]c2c1 [Compound 1020-102, (2-Cyclopropyl-6-(3,5-dimethylisoxazol-4-yl)-1H-benzo[d]imidazol-4-yl)diphenylmethanol]
IC50 [1]: 49.7 nM

CCC(CC)c1cc(-c2c(C)noc2C)cc2[nH]c(C3CC3)nc12 [Compound 1020-120, 4-(2-Cyclopropyl-4-(pentan-3-yl)-1H-benzo[d]imidazol-6-yl)-3,5-dimethylisoxazole]
IC50 [1]: 48.8 nM

Cc1noc(C)c1-c1cc(C(O)C2CCCC2)c2nc(C3CC3)[nH]c2c1 (stereo not shown) [Compound 1020-121, Cyclopentyl(2-cyclopropyl-6-(3,5-dimethylisoxazol-4-yl)-1H-benzo[d]imidazol-4-yl)methanol]
IC50 [1]: 42.8 nM

CCC(O)(CC)c1cc(-c2c(C)noc2C)cc2c1nc(C1CC1)n2C [Compound 1020-132, 3-(2-Cyclopropyl-6-(3,5-dimethylisoxazol-4-yl)-1-methyl-1H-benzo[d]imidazol-4-yl)pentan-3-ol]
IC50 [1]: 544 nM

Cc1noc(C)c1-c1cc(N2C(=O)CCC2C)c2nc(C3CC3)[nH]c2c1 (stereo not shown) [Compound 1020-136, 1-(2-Cyclopropyl-6-(3,5-dimethylisoxazol-4-yl)-1H-benzo[d]imidazol-4-yl)-5-methylpyrrolidin-2-one]
IC50 [1]: 335 nM

CCC1CCC(=O)N1c1cc(-c2c(C)noc2C)cc2[nH]c(C3CC3)nc12 (stereo not shown) [Compound 1020-137, 1-(2-Cyclopropyl-6-(3,5-dimethylisoxazol-4-yl)-1H-benzo[d]imidazol-4-yl)-5-ethylpyrrolidin-2-one]
IC50 [1]: 113 nM

Cc1noc(C)c1-c1cc(S(=O)(=O)NC2CCCC2)c2nc(Cc3ccccc3)[nH]c2c1 [Compound 1020-141, 2-Benzyl-N-cyclopentyl-6-(3,5-dimethylisoxazol-4-yl)-1H-benzo[d]imidazole-4-sulfonamide]
IC50 [1]: 887 nM

Cc1noc(C)c1-c1cc(S(=O)(=O)NC2CCCC2)c2nc(NCC(F)(F)F)[nH]c2c1 [Compound 1020-148]
IC50 [1]: 495 nM
